This is an account of results in patent US20100273769A1, “COMPOSITION AND METHOD FOR THE TREATMENT OF PARKINSON'S DISEASE” (priority 2009, published 2010).

Like-named read-outs stand apart in the source and are kept apart here. Some results are limits rather than exact numbers.

The target of one data set is T1, wildtype human LRRK2 (Homo sapiens, UniProt Q5S007).
T1 construct: human LRRK2 protein fragment encompassing amino acids 1326 to 2527; GST; made in house
T1 sequence (Q5S007 1326-2527): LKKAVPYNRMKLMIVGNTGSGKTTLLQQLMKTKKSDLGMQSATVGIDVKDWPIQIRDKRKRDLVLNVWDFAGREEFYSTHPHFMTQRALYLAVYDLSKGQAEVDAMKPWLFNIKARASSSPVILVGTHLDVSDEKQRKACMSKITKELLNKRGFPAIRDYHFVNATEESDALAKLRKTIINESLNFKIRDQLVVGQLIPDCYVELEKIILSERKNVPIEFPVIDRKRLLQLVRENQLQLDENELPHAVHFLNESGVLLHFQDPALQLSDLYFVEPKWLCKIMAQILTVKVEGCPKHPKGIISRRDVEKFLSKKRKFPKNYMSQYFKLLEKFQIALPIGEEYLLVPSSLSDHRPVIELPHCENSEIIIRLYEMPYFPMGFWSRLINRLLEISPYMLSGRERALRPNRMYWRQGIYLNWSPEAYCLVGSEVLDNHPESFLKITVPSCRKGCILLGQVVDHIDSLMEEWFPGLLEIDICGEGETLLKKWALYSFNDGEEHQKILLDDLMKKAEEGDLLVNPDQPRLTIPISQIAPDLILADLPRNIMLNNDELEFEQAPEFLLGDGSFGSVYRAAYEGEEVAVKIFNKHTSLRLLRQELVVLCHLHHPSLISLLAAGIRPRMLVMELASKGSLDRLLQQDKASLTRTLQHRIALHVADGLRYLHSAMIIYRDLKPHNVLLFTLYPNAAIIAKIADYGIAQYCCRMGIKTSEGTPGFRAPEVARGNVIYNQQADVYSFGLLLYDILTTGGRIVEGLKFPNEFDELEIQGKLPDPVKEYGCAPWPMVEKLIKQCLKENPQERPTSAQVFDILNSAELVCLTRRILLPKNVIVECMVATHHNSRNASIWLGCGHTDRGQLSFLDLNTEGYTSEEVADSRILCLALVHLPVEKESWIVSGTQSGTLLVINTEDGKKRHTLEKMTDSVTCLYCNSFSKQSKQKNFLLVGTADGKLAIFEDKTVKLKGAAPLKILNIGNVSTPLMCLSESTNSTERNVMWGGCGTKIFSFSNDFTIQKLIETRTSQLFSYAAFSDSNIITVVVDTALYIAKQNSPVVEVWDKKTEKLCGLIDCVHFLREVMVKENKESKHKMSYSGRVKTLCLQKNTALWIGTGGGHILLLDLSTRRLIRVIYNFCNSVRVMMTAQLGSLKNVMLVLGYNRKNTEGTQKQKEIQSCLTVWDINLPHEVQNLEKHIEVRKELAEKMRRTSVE
Kind of data set: Adapta assay, inhibition of wildtype human LRRK2 kinase fragment with LRRKtide. The class given is biochemical.

For a further data set, the target named is ERK2 (Homo sapiens, UniProt P28482). The experiment in a line: Kinase specificity, ERK2. The conditions noted are these: 100 μM ATP. The class given is biochemical.
Another data set addresses Cdk1 (Homo sapiens, UniProt P06493). Kind of data set: Kinase specificity, Cdk1. The class given is biochemical. The following applies: 100 μM ATP.
For the next data set, the target named is PKA. Kind of data set: Kinase specificity, PKA. The class given is biochemical. The following applies: 100 μM ATP.
Another data set addresses LRRK2 (Homo sapiens, UniProt Q5S007). The following applies: Covy and Giasson 2009; Anand et al. 2009; cited from earlier work.
For a further data set, the target named is GSK3. The experiment in a line: Kinase specificity, GSK3. It counts as biochemical. The following applies: 100 μM ATP.
Another data set addresses PKC. The experiment in a line: Kinase specificity, PKC. The class given is biochemical. The conditions noted are these: 100 μM ATP.
Data set [1] concerns R1441C LRRK2 transgenic C. elegans. The experiment in a line: Food-sensing (slowing) response in LRRK2 transgenic C. elegans. It counts as in vivo. The following applies: 2 mM added to the assay, FIG. 5 inset. On the procedure:
Dopaminergic neurons in C. elegans are involved in food sensing behavior such that in the absence of food worms move more rapidly, as assessed by determining their bending frequency on an agar plate not supplied with food. In an established assay the animals are then exposed to food, and the difference in motility is recorded in the form of bending frequency [Sawin et al., Neuron 26, 619-631 (2000)]. […] In approximate synchrony with the dopaminergic neurodegeneration this slowing response is essentially eliminated after 4 days. […] The slowing response can be reconstituted to a substantial degree by supplementation with dopamine, confirming that the phenotype is due to loss of dopaminergic input (FIG. 5).
The clear-cut functional phenotype of this model can be used to determine the efficacy of LRRK2 kinase inhibitors and the accurate determination of their potency in a biological context. […] The potency is expressed as the half-maximal restoration of the slowing response. […]
The functional consequence of dopaminergic neurodegeneration was assayed using the food-sensing response resulting in a slowing of motility after food exposure as assessed by the frequency of body bending within 20 second intervals in groups of 10 animals [Sawin et al., Neuron 26, 619-631 (2000)]. […]

Data set [2] in a line: Lethal plasma concentration after single dosing. It counts as in vivo. The following applies: read-out: LC50 as plasma concentration.

Cdk1, sequence (P06493 whole entry, species assumed): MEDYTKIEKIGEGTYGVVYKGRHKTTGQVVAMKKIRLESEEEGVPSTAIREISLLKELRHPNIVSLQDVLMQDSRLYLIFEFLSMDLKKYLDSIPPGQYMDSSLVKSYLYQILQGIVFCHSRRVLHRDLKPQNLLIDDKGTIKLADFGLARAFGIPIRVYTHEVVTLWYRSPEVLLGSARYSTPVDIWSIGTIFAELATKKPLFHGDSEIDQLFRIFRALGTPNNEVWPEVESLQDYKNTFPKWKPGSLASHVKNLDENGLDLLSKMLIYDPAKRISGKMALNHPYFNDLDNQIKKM
Cdk1, sequence (P14635 whole entry partner, species assumed): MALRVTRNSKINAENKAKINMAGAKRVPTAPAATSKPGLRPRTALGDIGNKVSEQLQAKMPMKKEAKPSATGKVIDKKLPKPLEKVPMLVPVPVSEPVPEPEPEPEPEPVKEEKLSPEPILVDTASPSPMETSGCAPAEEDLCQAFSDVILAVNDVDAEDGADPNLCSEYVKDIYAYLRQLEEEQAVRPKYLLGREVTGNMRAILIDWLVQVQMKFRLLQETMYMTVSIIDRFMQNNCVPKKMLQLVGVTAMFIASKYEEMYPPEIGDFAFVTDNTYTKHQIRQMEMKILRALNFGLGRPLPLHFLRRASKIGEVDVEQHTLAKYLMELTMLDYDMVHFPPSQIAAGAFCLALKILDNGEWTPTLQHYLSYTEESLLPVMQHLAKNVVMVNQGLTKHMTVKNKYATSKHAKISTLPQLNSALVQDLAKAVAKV
ERK2, sequence (P28482 whole entry, species assumed): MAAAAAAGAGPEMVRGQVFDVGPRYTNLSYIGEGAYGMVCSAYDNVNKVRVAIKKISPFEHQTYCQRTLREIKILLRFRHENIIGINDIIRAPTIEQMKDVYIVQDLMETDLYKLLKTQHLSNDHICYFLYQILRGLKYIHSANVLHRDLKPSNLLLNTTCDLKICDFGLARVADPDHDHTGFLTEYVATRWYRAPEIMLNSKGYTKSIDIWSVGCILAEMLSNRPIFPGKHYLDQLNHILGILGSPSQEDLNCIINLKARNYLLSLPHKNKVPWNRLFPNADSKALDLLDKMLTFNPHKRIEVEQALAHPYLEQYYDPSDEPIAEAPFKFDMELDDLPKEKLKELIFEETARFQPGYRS
LRRK2, sequence (Q5S007 whole entry): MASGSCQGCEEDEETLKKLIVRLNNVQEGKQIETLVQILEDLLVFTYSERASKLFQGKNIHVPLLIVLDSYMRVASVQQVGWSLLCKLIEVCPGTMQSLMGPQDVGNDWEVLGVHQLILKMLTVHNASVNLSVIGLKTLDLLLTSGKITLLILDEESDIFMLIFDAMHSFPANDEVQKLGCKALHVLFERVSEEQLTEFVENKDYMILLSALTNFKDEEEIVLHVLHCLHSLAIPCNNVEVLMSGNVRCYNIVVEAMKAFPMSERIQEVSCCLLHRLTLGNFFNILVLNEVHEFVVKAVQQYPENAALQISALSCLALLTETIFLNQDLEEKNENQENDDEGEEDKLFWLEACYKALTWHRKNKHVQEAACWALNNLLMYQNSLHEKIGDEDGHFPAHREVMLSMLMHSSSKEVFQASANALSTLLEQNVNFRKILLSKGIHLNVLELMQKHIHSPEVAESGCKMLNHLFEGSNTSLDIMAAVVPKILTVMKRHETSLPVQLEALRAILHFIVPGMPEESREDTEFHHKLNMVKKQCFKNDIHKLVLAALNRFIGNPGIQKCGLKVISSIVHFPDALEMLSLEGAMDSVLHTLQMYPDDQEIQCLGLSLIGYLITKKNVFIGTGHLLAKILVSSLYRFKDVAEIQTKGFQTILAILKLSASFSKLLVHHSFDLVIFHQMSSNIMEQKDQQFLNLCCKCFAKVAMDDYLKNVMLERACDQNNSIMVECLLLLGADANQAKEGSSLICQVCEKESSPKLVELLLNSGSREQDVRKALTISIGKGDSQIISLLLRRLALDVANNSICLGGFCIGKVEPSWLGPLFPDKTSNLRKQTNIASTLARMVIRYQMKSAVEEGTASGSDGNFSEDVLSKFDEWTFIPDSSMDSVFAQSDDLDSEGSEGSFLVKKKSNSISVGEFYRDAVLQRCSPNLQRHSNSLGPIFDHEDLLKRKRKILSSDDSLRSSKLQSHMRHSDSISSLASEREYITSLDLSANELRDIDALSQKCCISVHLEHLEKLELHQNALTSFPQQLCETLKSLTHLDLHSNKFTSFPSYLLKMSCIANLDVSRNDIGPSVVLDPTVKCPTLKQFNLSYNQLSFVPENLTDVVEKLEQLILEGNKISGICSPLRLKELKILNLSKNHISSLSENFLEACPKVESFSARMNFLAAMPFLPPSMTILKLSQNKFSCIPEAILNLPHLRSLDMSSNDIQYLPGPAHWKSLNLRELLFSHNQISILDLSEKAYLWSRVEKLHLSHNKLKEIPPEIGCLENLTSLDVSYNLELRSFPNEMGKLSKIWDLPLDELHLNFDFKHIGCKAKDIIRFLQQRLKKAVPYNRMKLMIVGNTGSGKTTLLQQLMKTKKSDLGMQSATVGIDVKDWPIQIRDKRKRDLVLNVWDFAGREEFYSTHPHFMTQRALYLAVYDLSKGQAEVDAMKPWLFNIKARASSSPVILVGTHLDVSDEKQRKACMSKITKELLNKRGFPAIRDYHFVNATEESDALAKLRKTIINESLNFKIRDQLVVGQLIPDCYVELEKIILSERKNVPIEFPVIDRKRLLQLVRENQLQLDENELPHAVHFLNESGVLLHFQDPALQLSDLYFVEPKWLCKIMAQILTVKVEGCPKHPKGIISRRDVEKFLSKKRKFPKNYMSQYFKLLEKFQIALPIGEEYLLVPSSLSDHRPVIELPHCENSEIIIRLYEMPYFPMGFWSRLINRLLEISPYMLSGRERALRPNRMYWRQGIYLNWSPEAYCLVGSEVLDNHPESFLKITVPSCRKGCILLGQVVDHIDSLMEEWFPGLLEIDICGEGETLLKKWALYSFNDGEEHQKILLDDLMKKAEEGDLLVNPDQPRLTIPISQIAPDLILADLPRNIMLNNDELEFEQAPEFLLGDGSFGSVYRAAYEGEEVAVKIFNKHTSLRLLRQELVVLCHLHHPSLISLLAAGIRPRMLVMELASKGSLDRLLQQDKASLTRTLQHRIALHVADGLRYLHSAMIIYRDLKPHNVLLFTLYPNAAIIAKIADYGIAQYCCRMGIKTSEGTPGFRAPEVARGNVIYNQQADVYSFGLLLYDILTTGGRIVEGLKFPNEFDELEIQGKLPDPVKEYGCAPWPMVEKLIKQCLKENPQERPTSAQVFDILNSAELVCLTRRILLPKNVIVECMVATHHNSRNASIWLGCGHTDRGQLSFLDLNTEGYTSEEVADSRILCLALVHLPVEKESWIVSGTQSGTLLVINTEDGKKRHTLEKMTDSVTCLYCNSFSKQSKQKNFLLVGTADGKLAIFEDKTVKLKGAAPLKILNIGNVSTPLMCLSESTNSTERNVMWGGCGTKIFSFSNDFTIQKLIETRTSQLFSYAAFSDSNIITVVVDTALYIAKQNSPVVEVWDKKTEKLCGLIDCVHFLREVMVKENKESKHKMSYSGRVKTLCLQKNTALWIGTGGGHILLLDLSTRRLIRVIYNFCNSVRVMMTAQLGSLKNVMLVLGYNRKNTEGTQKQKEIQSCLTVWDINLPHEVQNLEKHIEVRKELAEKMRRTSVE

Regarding `COC(=O)[C@@]1(N)CC2OC1(C)n1c3ccccc3c3c4c(c5c6ccccc6n2c5c31)C(=O)NC4` (stereo partly drawn) [Compound 5], the IC50 on wildtype human LRRK2 (100 μM ATP, read-out: LRRK2) is 1 nM; at wildtype human LRRK2 (100 microM ATP, read-out: LRRK2 inhibitory potency (essentially receptor-limited)), ≤ 1 nM; against ERK2 it was 350 nM; at Cdk1, 260 nM.

With `CC12OC(C[C@]1(N)CO)n1c3ccccc3c3c4c(c5c6ccccc6n2c5c31)CNC4=O` (stereo partly drawn) [Compound 13], the IC50 at wildtype human LRRK2 (100 μM ATP, read-out: LRRK2) was 1 nM.

As for `CNC(=O)[C@@]1(N)CC2OC1(C)n1c3ccccc3c3c4c(c5c6cc(Br)ccc6n2c5c31)C(=O)NC4` (stereo partly drawn) [Compound 14], the IC50 at wildtype human LRRK2 (100 μM ATP, read-out: LRRK2) is 1.2 nM.

In the case of `CNC(=O)C1(N)CC2OC1(C)n1c3ccc(Br)cc3c3c4c(c5c6cc(Br)ccc6n2c5c31)C(=O)NC4` (stereo not drawn) [Compound 15], on wildtype human LRRK2 (100 μM ATP, read-out: LRRK2), the IC50 is 1.5 nM.

As to `COC(=O)[C@@]1(O)C[C@H]2O[C@]1(C)n1c3ccccc3c3c4c(c5c6ccccc6n2c5c31)C(=O)NC4` [Compound K252a, K252a, reference compound], the IC50 is 3400 nM on PKA; 220 nM against wildtype human LRRK2; > 10000 nM against GSK3; 5000 nM at PKC; 120 nM against ERK2; 310 nM against Cdk1. Moreover, at wildtype human LRRK2 (direct comparison), the “Potency for LRRK2 inhibition lower than that of compound 5” value is recorded as “more than 2 orders of magnitude”. Moreover, the “Activity as inhibitor of LRRK2” value on LRRK2 is given as “active as inhibitors of LRRK2”.

For `Cl.NCCc1ccc(O)c(O)c1` [dopamine hydrochloride, reference compound], in [1], the “Loss of the food-sensing response in impaired LRRK2 worms” value is “partially rescued”.

Turning to `CN[C@@H]1C[C@H]2O[C@@](C)([C@@H]1OC)n1c3ccccc3c3c4c(c5c6ccccc6n2c5c31)C(=O)NC4` [staurosporine], the LC50 in [2] was in the range of 200 to 300 nM. At LRRK2, the “Activity as inhibitor of LRRK2” value was “active as inhibitors of LRRK2”.
